Target: Tyrosine-protein kinase BTK (Homo sapiens, UniProt Q06187)
Experiment: Biochemical kinase assay wt-BTK
Method: To determine the inhibitory activity of compounds on wt-BTK enzyme activity, the IMAP assay (Molecular Devices) was used. Compounds were serially diluted in dimethylsulfoxide (DMSO) and subsequently in 4% DMSO in IMAP reaction buffer, which consists of 10 mM Tris-HCl, pH 15 7.5, 10 mM MgCl2, 0.01% Tween-20, 0.1% NaN3 and 1 mM freshly prepared dithiotreitol (DTT). Compound solution was mixed with an equal volume of full-length wt-BTK enzyme (Carna Biosciences, cat. no. 08-180) in IMAP reaction buffer. After pre-incubation of 1 hour in the dark at room temperature, fluorescein-labeled MBP-derived substrate peptide (Molecular Devices, cat. no. RP 7123) was added, followed by ATP to start the reaction. Final enzyme concentration was 1.2 nM, final substrate concentration 50 nM, and final ATP concentration was 4 μM. The reaction was allowed to proceed for 2 hours at room temperature in the dark. The reaction was stopped by quenching with IMAP progressive binding solution according to the protocol of the manufacturer (Molecular Devices). Fluorescein polarization was measured on an Envision multimode reader (Perkin Elmer, Waltham, MA, U.S.A.).

Sequence of Tyrosine-protein kinase BTK (Q06187 whole entry): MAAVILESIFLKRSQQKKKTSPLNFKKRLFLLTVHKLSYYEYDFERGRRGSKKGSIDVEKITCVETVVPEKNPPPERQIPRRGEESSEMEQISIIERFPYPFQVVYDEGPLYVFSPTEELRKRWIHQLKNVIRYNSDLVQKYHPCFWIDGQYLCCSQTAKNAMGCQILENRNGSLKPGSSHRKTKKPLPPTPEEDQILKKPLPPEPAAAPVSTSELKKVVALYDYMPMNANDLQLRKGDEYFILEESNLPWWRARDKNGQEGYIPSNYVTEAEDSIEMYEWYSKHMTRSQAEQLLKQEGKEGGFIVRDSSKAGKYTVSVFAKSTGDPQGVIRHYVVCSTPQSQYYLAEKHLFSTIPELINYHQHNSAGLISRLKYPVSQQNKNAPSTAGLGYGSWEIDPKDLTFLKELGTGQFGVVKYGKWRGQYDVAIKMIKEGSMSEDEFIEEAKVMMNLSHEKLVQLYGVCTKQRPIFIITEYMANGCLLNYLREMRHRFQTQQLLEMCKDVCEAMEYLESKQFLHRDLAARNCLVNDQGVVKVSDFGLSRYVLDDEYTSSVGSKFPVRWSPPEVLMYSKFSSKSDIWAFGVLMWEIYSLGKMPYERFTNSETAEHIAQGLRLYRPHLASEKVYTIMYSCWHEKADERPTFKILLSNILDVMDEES

IC50: < 5 nM
Structure (SMILES): C[C@@H]1CCn2nc(-c3ccc(C(=O)Nc4cc(C(F)(F)F)ccn4)cc3)c3c(N)ncc(c32)/C=C/CCCCC(=O)N1 [US20250074911, Example 54]

Source: BindingDB's records for patent US20250074911 (Crossfire Oncology Holding, 2025)
